{"source": "patent US12059502B2", "about": "“Composition and method for pretreating cancer” (Valcuria AB, priority 2016, dated 2024)", "key": {"[1]": {"test": "Reported physicochemical properties of valproic acid", "conditions": "based on reported absorption and solubility values"}, "[2]": {"conditions": "according to Sigma-Aldrich; cited from earlier work"}, "[3]": {"conditions": "cited from earlier work"}, "[4]": {"conditions": "70 kg person, Gugler and Unruh 1980"}, "[5]": {"conditions": "systemic disposition PK of the reported 250 mg single dose study"}}, "note": "Where two headings read alike, the source gives them in different places."}
{"compound": "CCCC(CCC)C(=O)O", "note": "[VPA, Valproic acid]", "values": [{"measurement": "biopharmaceutical classification system (BCS) class", "setting": "[1]", "result": "class I"}, {"measurement": "solubility in water", "setting": "[2]", "result": 50, "unit": "mg/mL"}, {"measurement": "CL", "setting": "[3]; [4]", "result": 0.61, "unit": "L/h"}, {"measurement": "F", "setting": "[3]; [4]", "result": 100, "unit": "%"}, {"measurement": "Vd", "setting": "[3]; [4]", "result": 10.6, "unit": "L"}, {"measurement": "rate of absorption of released drug, first order (kabs)", "setting": "[3]; based on data of Dutta and Reed 2007", "result": 61, "unit": "h⁻¹"}, {"measurement": "time up to which intestinal absorption was measured by deconvolution", "setting": "[3]; oral, Dutta and Zhang, 2004", "result": "up to 22 hr"}, {"measurement": "bioavailability (F)", "setting": "[3]; oral, immediate release, modified release and extended release formulations", "result": "~100", "unit": "%"}, {"measurement": "CL", "setting": "[3]; [5]", "result": 0.52, "unit": "L/h"}, {"measurement": "V", "setting": "[3]; [5]", "result": 7.1, "unit": "L"}]}
